Results from patent publication US12065443B2, “Compounds and pharmaceutical compositions thereof for the treatment of diseases” (priority 2017, dated 2024).
pIC50: −log10 of the molar value.

Tests used:
Test in all cases: biochemical
Details in all cases: ADP-Glo SIK kinase assay
SIK2 = biological target: T1, SIK2 (Homo sapiens, UniProt Q9H0K1)
T1 construct: purchased ThermoFisher Scientific PV4792
Method: (§1) The ADP-Glo™ kinase assay is a luminescent technology assay which measures the ADP formed from a kinase reaction. […] In a second step the kinase reactions are terminated and all the remaining ATP is depleted. In a final step the ADP is converted into ATP and this newly synthesized ATP is measured by using a luciferase/luciferin reaction. The generated light is measured using an Envision plate reader, wherein the luminescent signal obtained positively correlates with the kinase activity.
(§2) 1% DMSO and 10 μM staurosporine final concentrations are used as negative and positive controls.
(§3) 2 μL enzyme-substrate mixture is added to the assay plates.
(§4) The reaction is started by adding 2 μL diluted ATP on the assay plates. Plates are centrifuged for a few seconds at 1000 rpm and gently shaken for 2 min followed by an incubation at RT for 120 min.
(§5) The reactions are stopped and the unconsumed ATP is depleted by adding 5 μL ADP-Glo Reagent (Promega, Cat #V912B) to the reaction. The plates are centrifuged for a few seconds at 1000 rpm and incubated at RT for 40 min (ATP depletion).
(§6) The ADP is converted to ATP and luciferase and luciferin is introduced to detect ATP by adding 10 μL Kinase Detection Reagent (Promega, Cat #V913B+V914B) to the reaction. The plates are centrifuged for a few seconds at 1000 rpm and incubated at RT for 30 min (ADP detection).
(§7) Luminescence is measured on an Envision plate reader (PerkinElmer Inc.).

SIK3 = biological target: T2, SIK3 (Homo sapiens, UniProt Q9Y2K2)
T2 construct: purchased SignalChem S12-11G-100
T2 sequence (Q9Y2K2 whole entry): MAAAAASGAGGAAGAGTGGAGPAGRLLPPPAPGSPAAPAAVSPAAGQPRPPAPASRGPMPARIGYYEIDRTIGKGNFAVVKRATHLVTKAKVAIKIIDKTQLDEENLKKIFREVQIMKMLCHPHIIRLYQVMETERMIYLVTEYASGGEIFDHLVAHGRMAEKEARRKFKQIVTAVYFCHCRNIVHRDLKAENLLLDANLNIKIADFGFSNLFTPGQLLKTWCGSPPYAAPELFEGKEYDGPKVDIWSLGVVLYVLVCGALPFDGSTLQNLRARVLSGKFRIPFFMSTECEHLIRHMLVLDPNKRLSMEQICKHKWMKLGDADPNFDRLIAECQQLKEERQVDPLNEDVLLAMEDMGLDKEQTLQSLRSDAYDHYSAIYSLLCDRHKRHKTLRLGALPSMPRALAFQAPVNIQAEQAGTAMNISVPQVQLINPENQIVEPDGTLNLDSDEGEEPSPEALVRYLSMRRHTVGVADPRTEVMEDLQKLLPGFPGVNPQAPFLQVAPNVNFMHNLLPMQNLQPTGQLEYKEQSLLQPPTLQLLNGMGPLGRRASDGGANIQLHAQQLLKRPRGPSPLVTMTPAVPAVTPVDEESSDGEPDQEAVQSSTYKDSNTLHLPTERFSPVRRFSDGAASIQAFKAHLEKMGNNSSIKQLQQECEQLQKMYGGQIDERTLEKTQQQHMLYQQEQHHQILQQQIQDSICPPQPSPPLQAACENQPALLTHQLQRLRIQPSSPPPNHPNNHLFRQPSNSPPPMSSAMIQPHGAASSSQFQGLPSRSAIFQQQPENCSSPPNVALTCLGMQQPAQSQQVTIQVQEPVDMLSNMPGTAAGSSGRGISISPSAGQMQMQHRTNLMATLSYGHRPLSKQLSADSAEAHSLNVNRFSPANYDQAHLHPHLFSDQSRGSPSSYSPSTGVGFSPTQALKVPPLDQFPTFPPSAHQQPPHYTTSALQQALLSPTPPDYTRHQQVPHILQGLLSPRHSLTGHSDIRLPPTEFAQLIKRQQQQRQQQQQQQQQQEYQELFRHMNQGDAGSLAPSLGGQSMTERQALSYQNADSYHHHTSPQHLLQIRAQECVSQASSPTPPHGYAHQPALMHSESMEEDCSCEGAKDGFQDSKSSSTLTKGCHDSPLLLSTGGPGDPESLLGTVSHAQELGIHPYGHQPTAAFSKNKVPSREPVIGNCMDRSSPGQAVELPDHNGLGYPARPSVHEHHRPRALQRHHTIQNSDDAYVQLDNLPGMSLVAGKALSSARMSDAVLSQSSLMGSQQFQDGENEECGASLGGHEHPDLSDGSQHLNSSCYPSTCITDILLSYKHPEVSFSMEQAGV
Method: as §1, §2, §3, §4, §5, §6, §7

SIK1 = biological target: T3, SIK1 (Homo sapiens, UniProt P57059)
T3 construct: purchased Carna Biosciences 02-131
T3 sequence (P57059 whole entry): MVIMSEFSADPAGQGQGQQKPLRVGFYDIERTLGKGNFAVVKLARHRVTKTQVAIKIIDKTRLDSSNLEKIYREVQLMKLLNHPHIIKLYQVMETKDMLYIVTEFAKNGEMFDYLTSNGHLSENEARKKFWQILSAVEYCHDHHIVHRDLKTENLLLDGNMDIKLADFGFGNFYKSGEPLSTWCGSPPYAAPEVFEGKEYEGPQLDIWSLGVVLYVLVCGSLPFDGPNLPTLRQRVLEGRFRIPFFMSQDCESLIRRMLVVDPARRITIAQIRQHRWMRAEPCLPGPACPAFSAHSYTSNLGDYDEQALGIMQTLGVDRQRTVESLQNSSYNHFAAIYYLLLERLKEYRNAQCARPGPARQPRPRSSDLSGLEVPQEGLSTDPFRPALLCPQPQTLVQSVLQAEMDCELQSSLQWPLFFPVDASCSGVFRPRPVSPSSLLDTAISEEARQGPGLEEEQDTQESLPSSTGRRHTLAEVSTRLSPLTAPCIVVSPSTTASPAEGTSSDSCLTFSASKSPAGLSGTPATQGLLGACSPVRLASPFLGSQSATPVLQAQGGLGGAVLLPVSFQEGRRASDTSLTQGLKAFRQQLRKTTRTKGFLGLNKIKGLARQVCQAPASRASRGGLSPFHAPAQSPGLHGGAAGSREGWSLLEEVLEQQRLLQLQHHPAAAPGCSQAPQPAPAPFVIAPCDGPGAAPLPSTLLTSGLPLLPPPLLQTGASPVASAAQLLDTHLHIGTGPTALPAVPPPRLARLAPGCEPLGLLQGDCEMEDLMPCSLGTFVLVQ
Method: as §1, §2, §3, §4, §5, §6, §7

T1 sequence (Q9H0K1 whole entry): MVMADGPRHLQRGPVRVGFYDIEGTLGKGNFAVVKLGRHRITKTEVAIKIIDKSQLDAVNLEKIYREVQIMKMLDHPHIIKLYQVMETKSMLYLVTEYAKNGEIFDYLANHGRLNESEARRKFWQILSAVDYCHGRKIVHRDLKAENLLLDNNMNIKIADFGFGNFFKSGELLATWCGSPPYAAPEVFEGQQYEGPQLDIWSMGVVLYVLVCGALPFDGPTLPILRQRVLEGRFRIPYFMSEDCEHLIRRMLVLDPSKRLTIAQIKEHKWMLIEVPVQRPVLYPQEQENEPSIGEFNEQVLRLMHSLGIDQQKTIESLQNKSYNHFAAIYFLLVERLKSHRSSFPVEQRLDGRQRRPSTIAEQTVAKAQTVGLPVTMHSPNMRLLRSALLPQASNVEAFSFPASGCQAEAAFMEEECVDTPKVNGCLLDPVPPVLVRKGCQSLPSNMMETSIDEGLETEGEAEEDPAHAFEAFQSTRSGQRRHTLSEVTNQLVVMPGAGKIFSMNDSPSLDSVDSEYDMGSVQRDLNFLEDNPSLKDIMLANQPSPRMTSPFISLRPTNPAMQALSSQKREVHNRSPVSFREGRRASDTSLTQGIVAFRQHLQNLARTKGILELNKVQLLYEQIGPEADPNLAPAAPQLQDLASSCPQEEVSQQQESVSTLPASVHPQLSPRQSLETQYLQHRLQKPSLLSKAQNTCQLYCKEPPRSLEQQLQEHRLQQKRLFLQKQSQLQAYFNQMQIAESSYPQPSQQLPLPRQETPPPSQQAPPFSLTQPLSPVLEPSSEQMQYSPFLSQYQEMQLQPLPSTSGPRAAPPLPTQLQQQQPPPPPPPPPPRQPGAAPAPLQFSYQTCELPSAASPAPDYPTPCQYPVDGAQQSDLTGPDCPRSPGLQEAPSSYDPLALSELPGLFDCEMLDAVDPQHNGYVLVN

| SMILES | pIC50 (SIK2) | pIC50 (SIK3) | pIC50 (SIK1) |
| --- | --- | --- | --- |
| COc1cc(-c2cnc3cc(-c4cnn(C)c4)c(OC(C)C#N)cn23)cc(OC(F)F)c1C(=O)NC1CC1 (stereo not drawn) [Cpd 301, 4-[6-(1-cyanoethoxy)-7-(1-methylpyrazol-4-yl)imidazo[1,2-a]pyridin-3-yl]-N-cyclopropyl-2-(difluoromethoxy)-6-methoxy-benzamide] | 8.00 to 11.00 | 8.00 to 11.00 | 8.00 to 11.00 |
| COc1cc(-c2cnc3cc(-c4ccc(N5CCOCC5)nn4)ccn23)cc(OC(F)F)c1C(=O)NC1CC1 [compound 286, N-cyclopropyl-2-(difluoromethoxy)-6-methoxy-4-[7-(6-morpholino-pyridazin-3-yl)imidazo[1,2-a]pyridin-3-yl]benzamide] | 8.00 to 11.00 | 8.00 to 11.00 | 8.00 to 11.00 |
| [2H]C([2H])([2H])Oc1cc(-c2cnc3cc(-c4cnn(C)c4)ccn23)cc(OC([2H])([2H])[2H])c1C(=O)NCC(F)(F)F [Cpd 266, 4-[7-(1-methylpyrazol-4-yl)imidazo[1,2-a]pyridin-3-yl]-2,6-bis(trideuterio-methoxy)-N-(2,2,2-trifluoroethyl)benzamide] | 8.00 to 11.00 | 8.00 to 11.00 | 8.00 to 11.00 |
| COc1cc(-c2cnc3cc(-c4ccc(N(C)C)nn4)ccn23)cc(OC(F)F)c1C(=O)NC1CC1 [compound 283, N-cyclopropyl-2-(difluoromethoxy)-4-[7-[6-(dimethylamino)pyridazin-3-yl]imidazo[1,2-a]pyridin-3-yl]-6-methoxy-benzamide] | 8.00 to 11.00 | 8.00 to 11.00 | 8.00 to 11.00 |
| COc1cc(-c2cnc3cc(-c4cccnc4C#N)ccn23)cc(OC)c1C(=O)NCC(F)(F)F [compound 268, 4-[7-(2-cyano-3-pyridyl)imidazo[1,2-a]pyridin-3-yl]-2,6-dimethoxy-N-(2,2,2-trifluoroethyl)benzamide] | 6.30 to 7.00 | 7.00 to 8.00 | < 6.30 |
| COc1cc(-c2cnc3cc(-c4cnn(C)c4)c(OCc4ccccc4)cn23)cc(OC(F)F)c1C(=O)NC1CC1 [Cpd 300, 4-[6-benzyloxy-7-(1-methylpyrazol-4-yl)imidazo[1,2-a]pyridin-3-yl]-N-cyclopropyl-2-(difluoromethoxy)-6-methoxy-benzamide] | 8.00 to 11.00 | 7.00 to 8.00 | 7.00 to 8.00 |
| COc1cc(-c2cnc3cc(-c4cnn(C)c4)c(OC(C)C(=O)O)cn23)cc(OC(F)F)c1C(=O)NC1CC1 (stereo not drawn) [Cpd 303, 2-[3-[4-(cyclopropyl-carbamoyl)-3-(difluoromethoxy)-5-methoxy-phenyl]-7-(1-methylpyrazol-4-yl)imidazo[1,2-a]pyridin-6-yl]oxypropanoic acid] | 7.00 to 8.00 | 7.00 to 8.00 | 7.00 to 8.00 |
| CCOC(=O)C(C)Oc1cn2c(-c3cc(OC)c(C(=O)NC4CC4)c(OC(F)F)c3)cnc2cc1-c1cnn(C)c1 (stereo not drawn) [Cpd 302, ethyl 2-[3-[4-(cyclopropyl-carbamoyl)-3-(difluoromethoxy)-5-methoxy-phenyl]-7-(1-methylpyrazol-4-yl)imidazo[1,2-a]pyridin-6-yl]oxypropanoate] | 7.00 to 8.00 | 7.00 to 8.00 | 7.00 to 8.00 |
| COc1cc(-c2cnc3cc(-c4cnn(C)c4)ccn23)cc(NC(C)C)c1C(=O)NC1CC1 [compound 277, N-cyclopropyl-2-(isopropylamino)-6-methoxy-4-[7-(1-methylpyrazol-4-yl)imidazo[1,2-a]pyridin-3-yl]benzamide] | 8.00 to 11.00 | 8.00 to 11.00 | 8.00 to 11.00 |
